US20150025131A1 (priority 2013, published 2015)
≈ marks a conversion by molar mass, not a printed value. Entries after “also recorded” stand apart in the source; their conditions may differ. Read-outs that look alike come from different tables or passages of the source.

Assays:
[1] = tested on: serum glutathione; assay: Adjuvant induced arthritis model, serum glutathione; type: in vivo, Sprague Dawley rats; conditions: AIA rats, daily intraperitoneal; Patuletin 25 mg/kg, indomethacin 5 mg/kg
Experimental: All studies were carried out using Female Sprague Dawley (SD) rats weighing 150-250 gms. Animals were kept at 21±2° C. and on a 12-h light/dark cycle, received standardized pelleted diet and tap water. Experiments were performed under the ethical guidelines of the International Association for the study of pain in conscious animals. Each group contains 12 animals with randomly distributed weights into each treatment group.
Arthritis was induced by injecting freshly prepared 100 μL of 1 mg suspension of lyophilized Mycobacterium tuberculosis H37Ra (MT H37Ra; DIFCO Laboratories, Detroit, Mich., USA), subcutaneously at the rat tail base using sterile hypodermic needle. Inoculation was carried out under anesthesia with a combination of 20 mg/kg ketamine and 5 mg/kg xylazine, injected intraperitoneally. Compound and the reference drug were administered daily, intraperitoneally using sterile syringes. The positive control received vehicle (5% DMSO+PBS) or saline only; treatment groups received test compounds (25 mg/kg), whereas reference group received indomethacin (5 mg/kg). […]
The concentration of reduced form of glutathione was determined in serum using the colorimetric Quantichrome ™ Glutathione assay kit (Bioassay Systems) in duplicates, using 96 well plates and according to manufacturer's instructions. The OD recorded at 412 nm which directly represents the level of glutathione in serum.

[2] = MTT cytotoxicity assay, MDBK; type: cell-based, bovine; conditions: bovine, MDBK bovine kidney cells, 48 h incubation, read-out: Cytotoxicity (IC50 μg/mL) MDBK cells
Experimental: (§1) Cell cytotoxicity assay was performed using three different cell lines NIH 3T3 (mouse embryo, fibroblast cells), CC1 (rat, epithelial, liver cell) and MDBK (bovine kidney) cells using MTT (3-[4,5-dimethylthiazole-2-yl]-2,5-diphenyl-tetrazolium bromide) colorimetric assay. Briefly 3T3 were grown in DMEM, supplemented with 10% of fetal bovine serum (FBS), and 1% penicillin-streptomycin whereas CC1 (rat epithelial liver cells) were cultured in EMEM, 2 mM Glutamine, 1% Non-Essential Amino Acids (NEAA), 20 mM HEPES, 10% Foetal Bovine Serum (FBS) and 1% penicillin-streptomycin, and MDBK cells were grown in 10% of fetal bovine serum (FBS) in 75 cm^2 flask, and incubated in 5% CO2 incubator at 37° C. until they attain 70% confluency. Cells were then harvested by centrifuging at 200 g for 5 min at 25° C., counted using heamocytometer and their concentration was adjusted to 6×10^4 cells/mL. 100 μL of Cells were then plated in 96 well plate and incubated overnight. Next day the supernatant was carefully removed and 200 μL of fresh medium was added with three different concentration of compound (1, 10, 50) μg/mL. […] The extent of MTT reduction to formazan within cells was calculated by measuring the absorbance at 540 nm; using a micro plate reader (Spectra Max plus 340, Molecular Devices, Calif., USA). […] The percent inhibition was calculated by using the following formula: […]

[3] = tested on: MDBK bovine kidney cells; assay: MTT cytotoxicity assay, MDBK; type: cell-based
Experimental: as §1

[4] = tested on: TNF-α production; assay: TNF-α production from PMA differentiated, LPS activated THP-1 cells (ELISA); type: cell-based, human; conditions: Homo sapiens, 4 h, read-out: inhibition of TNF-α production (IC50)
Experimental: The symbol * and δ represents the P≦0.03 and P≦0.006, respectively.
FIG. 2 depicts the effect of pentoxyfillin (PTX) on TNF-α production (pg/mL) Human monocytic leukemia THP-1 cells were differentiated and activated with 20 ng/mL of PMA and 50 ng/mL of LPS, respectively and incubated with different concentrations of PTX for 4h, the supernatant was analyzed for the level of TNF-α by ELISA. The symbol * represents P≦of 0.03.
THP-1 (human monocytic leukemia) cells were maintained in RPMI-1640 supplemented with 10% FBS, 2 mmol/L glutamine, 5.5 mmol/L glucose, 50 μmol/L mercaptoethanol, 1 mmol/L sodium pyruvate, and 10 mmol/L HEPES and incubated at 37° C. in 5% CO2. Cells were grown in […] culture flask until they attained 70% confluency. Cells were then plated in 24-well tissue culture plates at a concentration of 2.5×10^5 cells/mL. Cells were differentiated into macrophages using PMA at a final concentration of 20 ng/mL and further incubated at 37° C. in 5% CO2 environment for 24 h. […] After addition of the compound cells were then incubated for 4 h for TNF-α production and 18 h for IL-1β production at 37° C. in 5% CO2. The supernatants were harvested and analyzed for the level of TNF-α and IL-1β, by human TNF-α and IL-1β Duo set ELISA kits, and according to the manufacturer's instructions.

[5] = tested on: ROS production from human peripheral whole blood phagocytes; assay: Luminol enhanced chemiluminescence oxidative burst, whole blood; type: cell-based
Experimental: Intracellular effect was determined using human peripheral whole blood phagocytes and isolated neutrophils and from mice peritoneum macrophages, where luminol-enhanced chemillumenescence assay was applied. The effect on myeloperoxidase independent ROS production was determined using lucigenin on murine macrophages RAW.267 cells.
Table 2. […] 267 cells (murine macrophages). DPI is used as standard drug. Reading presents mean±SD of three determinations.
Luminol enhanced chemiluminescence technique was applied to study the effect of compound on ROS from phagocytes, Using whole blood, neutrophil and macrophages Briefly, 25 μL diluted whole blood (1:50 dilution in sterile HBSS^++) or 25 μL of PMNs (1×10^6), or 25 μL of isolated macrophages (1×10^6) were incubated with 25 μL of compound in triplicates and using three different concentrations (1, 10 and 100 μg/mL) using white 96 wells plates. Wells received HBSS^++ and cells only without compound served as positive control. 25 μL of serum opsonized zymosan-A (SOZ), followed by 25 μL luminol (7×10^−5 M), was added to each well to maintain a volume of 100 μL/well. Plates were then incubated at 37° C. for 30 minutes in the thermostated chamber of the luminometer. Results were monitored as relative light unit (RLU) reading, with peak and total integral values set with repeated scans at 60 seconds intervals, and 1 second points measuring time.

Q: What does the source list for `COc1c(O)cc2oc(-c3ccc(O)c(O)c3)c(O)c(=O)c2c1O` [Patuletin, 3,5,7,3′,4′-pentahydroxy-6-methoxy flavones]?
A: level of glutathione in serum versus arthritic control group [1]: non-significant increase; also recorded: mild increase; IC50 at 48 h [2]: 12.6 ± 0.4 µg/mL (≈ 37.9 µM); cytotoxicity on MDBK bovine kidney cells (in words) [3]: no cytotoxicity; IC50 [4]: 2.5 µg/mL (≈ 7.52 µM); IC50 ([5]; luminol enhanced, serum opsonized zymosan, read-out: Myeloperoxidase dependent Oxidative Burst (IC50 μg/mL) Whole blood): 3.5 ± 0.5 µg/mL; IC50 ([5]; read-out: suppression of ROS production from whole blood (IC50), unit inferred): 3.5 µg/mL
